According to ChEMBL document CHEMBL1201862, “PubChem BioAssay data set” (2004):
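Following 48 hours of exposure in 96-well plates, responses at five concentrations were used to interpolate endpoints linearly. Here, GI50 denotes the concentration required for 50% inhibition of growth.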 Activity calls are given as the source filed them. Rule as the data show it: active = GI50 up to about 1.1 µM and inactive = higher.

What was measured:
Assay in all cases: NCI-60 cell line screen, 48 h
OVCAR-8 = test system: OVCAR-8
A549 = test system: A549
SF-539 = test system: SF-539
XF498 = test system: XF498
CAKI-1 = test system: CAKI-1
COLO 205 = test system: COLO 205
SK-MEL-28 = test system: SK-MEL-28
CCRF-CEM = test system: CCRF-CEM
SF-295 = test system: SF-295
LOX IMVI = test system: LOX IMVI
DMS-114 = test system: DMS-114
IGROV-1 = test system: IGROV-1
UACC-62 = test system: UACC-62
UACC-257 = test system: UACC-257
RPMI-8226 = test system: RPMI-8226
M19-MEL = test system: M19-MEL
NCI-H226 = test system: NCI-H226
TK-10 = test system: TK-10
UO-31 = test system: UO-31
HT-29 = test system: HT-29
SK-OV-3 = test system: SK-OV-3
RXF 393 = test system: RXF 393
KM12 = test system: KM12
SK-MEL-5 = test system: SK-MEL-5
SF-268 = test system: SF-268
SN12C = test system: SN12C
NCI-H23 = test system: NCI-H23
MOLT-4 = test system: MOLT-4
M14 = test system: M14
NCI-H522 = test system: NCI-H522
DMS-273 = test system: DMS-273
SNB-75 = test system: SNB-75
OVCAR-3 = test system: OVCAR-3
SNB-19 = test system: SNB-19
EKVX = test system: EKVX
SW-620 = test system: SW-620
HCT-15 = test system: HCT-15
HL-60 = test system: HL-60
K562 = test system: K562
OVCAR-5 = test system: OVCAR-5
A498 = test system: A498
HCC 2998 = test system: HCC 2998
ACHN = test system: ACHN
KM-20L2 = test system: KM-20L2
U-251 = test system: U-251
LXFL 529 = test system: LXFL 529
786-0 = test system: 786-0
SK-MEL-2 = test system: SK-MEL-2
SR = test system: SR
HOP-62 = test system: HOP-62
NCI-H460 = test system: NCI-H460
Malme-3M = test system: Malme-3M
SNB-78 = test system: SNB-78
HCT-116 = test system: HCT-116
OVCAR-4 = test system: OVCAR-4
DLD-1 = test system: DLD-1

Measured: GI50

Nc1ccc([C@H]2C(=O)N[C@H]3CCC[C@H]32)cc1
inactive: OVCAR-8 > 100 µM | A549 > 100 µM | SF-539 > 100 µM | XF498 > 100 µM | CAKI-1 > 100 µM | COLO 205 > 100 µM | SK-MEL-28 > 100 µM | CCRF-CEM > 100 µM | SF-295 > 100 µM | LOX IMVI > 100 µM | DMS-114 > 100 µM | IGROV-1 > 100 µM | UACC-62 > 100 µM | UACC-257 > 100 µM | RPMI-8226 > 100 µM | M19-MEL > 100 µM | NCI-H226 > 100 µM | TK-10 > 100 µM | UO-31 > 100 µM | HT-29 > 100 µM | SK-OV-3 > 100 µM | RXF 393 > 100 µM | KM12 > 100 µM | SK-MEL-5 > 100 µM | SF-268 > 100 µM | SN12C > 100 µM | NCI-H23 > 100 µM | MOLT-4 > 100 µM | M14 > 100 µM | NCI-H522 > 100 µM | DMS-273 > 100 µM | SNB-75 > 100 µM | OVCAR-3 > 100 µM | SNB-19 > 100 µM | EKVX > 100 µM | SW-620 > 100 µM | HL-60 > 100 µM | K562 > 100 µM
> 100 µM: HCT-15

CC#COS(=O)(=O)c1ccc(C)cc1
79.8 µM: HCT-15
inactive: OVCAR-8 > 100 µM | OVCAR-5 > 100 µM | A549 44.3 µM | A498 > 10 µM | HCC 2998 > 100 µM | SF-539 > 100 µM | ACHN 58.2 µM | KM-20L2 46.5 µM | U-251 > 100 µM | CAKI-1 > 100 µM | COLO 205 39.9 µM | LXFL 529 41 µM | CCRF-CEM 27.9 µM | 786-0 44.4 µM | SF-295 > 100 µM | LOX IMVI 52 µM | DMS-114 32.7 µM | SK-MEL-2 > 100 µM | SR 33.7 µM | IGROV-1 > 100 µM | HOP-62 > 100 µM | UACC-62 32.4 µM | UACC-257 47.5 µM | RPMI-8226 23.1 µM | M19-MEL 70.1 µM | NCI-H460 70.6 µM | NCI-H226 89.3 µM | Malme-3M 88.3 µM | TK-10 > 100 µM | UO-31 57.1 µM | HT-29 45.9 µM | SK-OV-3 84.3 µM | SNB-78 63.5 µM | KM12 59.2 µM | SK-MEL-5 37.4 µM | SF-268 93.3 µM | SN12C > 100 µM | HCT-116 37.5 µM | NCI-H23 65.6 µM | MOLT-4 41.1 µM | M14 35.6 µM | NCI-H522 49.5 µM | OVCAR-3 60.5 µM | SNB-19 > 100 µM | EKVX 53.5 µM | SW-620 42.7 µM | OVCAR-4 58.5 µM | HL-60 26.4 µM | DLD-1 30.8 µM | K562 36.8 µM
